pIC50: −log10 of the molar value.

One assay relates to TNF-α production in LPS-stimulated human whole blood. The assay can be described thus: Inhibition of TNF-α production from human whole blood (hWBA). Particulars: Homo sapiens, IC50 for inhibition of TNF-α production, LPS-stimulated human whole blood; read-out: hWBA. The assay is classed as cell-based.
Regarding `COc1ccc2c(c1)C(=O)N(C[C@@]1(C#Cc3ccc(-c4ccccc4O)cc3)NC(=O)NC1=O)C2` [Compound 969], the pIC50 is 6.19.

For the compound `COc1ccc2c(c1)C(=O)N(C[C@@]1(C#Cc3ccc(CN4CCN(c5nccs5)CC4)cc3)NC(=O)NC1=O)C2` [Compound 980], the pIC50 is 5.50. Still for that read-out and setting: for `COc1ccc2c(c1F)C(=O)N(C[C@@]1(C#Cc3ccc(CN4CCN(c5ccncc5)CC4)cc3)NC(=O)NC1=O)C2` [Compound 981] the value was 6.54. As for `COc1ccc2c(c1F)C(=O)N(C[C@@]1(C#Cc3ccc(CN4CCN(C5CCCCC5)CC4)cc3)NC(=O)NC1=O)C2` [Compound 982], the pIC50 was 6.59. Still for that read-out and setting: for `COc1ccc2c(c1F)C(=O)N(C[C@]1(C#Cc3ccc(CN4CCN(C5CCCCC5)CC4)cc3)NC(=O)NC1=O)C2` [Compound 985] the value was 4.00. Still for that read-out and setting: the result for `COc1ccc2c(c1F)C(=O)N(C[C@@]1(C#Cc3ccc(-c4cccc(N5CCN(C6CCCCC6)CC5)n4)c(F)c3)NC(=O)NC1=O)C2` [Compound 994] reads 5.61.

The same assay, now with this note: IC50 for inhibition of TNF-α production, LPS-stimulated human whole blood; read-out: hWBA.
For `COc1ccc2c(c1)C(=O)N(C[C@@]1(C#Cc3ccc(-c4nc(-c5ccncc5)ccc4O)cc3)NC(=O)NC1=O)C2` [Compound 970], the pIC50 was 7.19. On the same count and under the same terms, the result for `COc1ccc2c(c1)C(=O)N(C[C@@]1(C#Cc3ccc(-c4nc(-c5cccnc5)ccc4O)cc3)NC(=O)NC1=O)C2` [Compound 971] reads 7.10; that for `CCN1CCN(c2ccc(OC)c(-c3ccc(C#C[C@]4(CN5Cc6ccc(OC)cc6C5=O)NC(=O)NC4=O)cc3)n2)CC1` [Compound 972], 6.24; that for `COc1ccc2c(c1)C(=O)N(C[C@@]1(C#Cc3ccc(-c4nc(-c5cnn(C)c5)ccc4O)cc3)NC(=O)NC1=O)C2` [Compound 973], 7.21. Still for that read-out and setting: the result for `COc1ccc2c(c1)C(=O)N(C[C@@]1(C#Cc3ccc(-c4nc(-c5cccnc5)ccc4OC(C)=O)cc3)NC(=O)NC1=O)C2` [Compound 975] reads 7.21; that for `CCN1CCN(c2ccc(O)c(-c3ccc(C#C[C@]4(CN5Cc6ccc(OC)cc6C5=O)NC(=O)NC4=O)cc3F)n2)CC1` [Compound 976], 7.40. As for `CCN1CCN(Cc2ccc(C#C[C@]3(CN4Cc5ccc(OC)cc5C4=O)NC(=O)NC3=O)cn2)CC1` [Compound 977], the pIC50 was 6.11. Same read-out and setting: the result for `CCN1CCN(Cc2ccc(C#C[C@]3(CN4Cc5ccc(OC)c(F)c5C4=O)NC(=O)NC3=O)cn2)CC1` [Compound 978] reads 6.81; that for `COc1ccc2c(c1F)C(=O)N(C[C@@]1(C#Cc3ccc(CN4CCN(c5ccncc5)CC4)nc3)NC(=O)NC1=O)C2` [Compound 979], 6.64. Regarding `CCN1CCN(Cc2ccc(C#C[C@]3(CN4Cc5ccc(OC)c(F)c5C4=O)NC(=O)NC3=O)cc2F)CC1` [Compound 983], the pIC50 was 6.60. Still for that read-out and setting: the result for `CCN1CCN(C(C)c2ccc(C#C[C@]3(CN4Cc5ccc(OC)c(F)c5C4=O)NC(=O)NC3=O)cc2)CC1` (some centres unmarked) [Compound 984] reads 6.16; that for `COc1ccc2c(c1F)C(=O)N(C[C@@]1(C#Cc3ccc(-c4nc(-c5cnn(C)c5)ccc4O)cc3)NC(=O)NC1=O)C2` [Compound 986], 7.06. Still for that read-out and setting: the result for `COc1ccc2c(c1F)C(=O)N(C[C@@]1(C#Cc3ccc(-c4nc(-c5cnn(C)c5)ccc4O)c(F)c3)NC(=O)NC1=O)C2` [Compound 987] reads 7.12; that for `COc1ccc2c(c1)C(=O)N(C[C@@]1(C#Cc3ccc(-c4nc(-c5cnn(C)c5)ccc4OC(=O)C(C)(C)C)cc3)NC(=O)NC1=O)C2` [Compound 990], 7.37. The same measure, in the same setting: for `CCN1CCN(c2cccc(-c3ccc(C#C[C@]4(CN5Cc6ccc(OC)c(F)c6C5=O)NC(=O)NC4=O)cc3)n2)CC1` [Compound 991] the value was 6.22; for `CCN1CCN(c2cccc(-c3ccc(C#C[C@]4(CN5Cc6ccc(OC)c(F)c6C5=O)NC(=O)NC4=O)cc3F)n2)CC1` [Compound 992], 6.09. Regarding `COc1ccc2c(c1F)C(=O)N(C[C@@]1(C#Cc3ccc(-c4cccc(N5CCN(C6CCCCC6)CC5)n4)cc3)NC(=O)NC1=O)C2` [Compound 993], the pIC50 is 6.07.

For the origin of these results see patent US8541572B2.
